Measurements from patent US12263172B2, “Toll-like receptor agonists for use in the treatment of hepatitis b” (priority 2019, dated 2025).
Read-outs that look alike come from different tables or passages of the source.

Legend:
[1] = molecular target: T1, monkey TLR7 (Macaca fascicularis, UniProt B3Y652); assay: activation of monkey TLR7 (LEC); format: cell-based
T1 sequence (B3Y652 1-1049): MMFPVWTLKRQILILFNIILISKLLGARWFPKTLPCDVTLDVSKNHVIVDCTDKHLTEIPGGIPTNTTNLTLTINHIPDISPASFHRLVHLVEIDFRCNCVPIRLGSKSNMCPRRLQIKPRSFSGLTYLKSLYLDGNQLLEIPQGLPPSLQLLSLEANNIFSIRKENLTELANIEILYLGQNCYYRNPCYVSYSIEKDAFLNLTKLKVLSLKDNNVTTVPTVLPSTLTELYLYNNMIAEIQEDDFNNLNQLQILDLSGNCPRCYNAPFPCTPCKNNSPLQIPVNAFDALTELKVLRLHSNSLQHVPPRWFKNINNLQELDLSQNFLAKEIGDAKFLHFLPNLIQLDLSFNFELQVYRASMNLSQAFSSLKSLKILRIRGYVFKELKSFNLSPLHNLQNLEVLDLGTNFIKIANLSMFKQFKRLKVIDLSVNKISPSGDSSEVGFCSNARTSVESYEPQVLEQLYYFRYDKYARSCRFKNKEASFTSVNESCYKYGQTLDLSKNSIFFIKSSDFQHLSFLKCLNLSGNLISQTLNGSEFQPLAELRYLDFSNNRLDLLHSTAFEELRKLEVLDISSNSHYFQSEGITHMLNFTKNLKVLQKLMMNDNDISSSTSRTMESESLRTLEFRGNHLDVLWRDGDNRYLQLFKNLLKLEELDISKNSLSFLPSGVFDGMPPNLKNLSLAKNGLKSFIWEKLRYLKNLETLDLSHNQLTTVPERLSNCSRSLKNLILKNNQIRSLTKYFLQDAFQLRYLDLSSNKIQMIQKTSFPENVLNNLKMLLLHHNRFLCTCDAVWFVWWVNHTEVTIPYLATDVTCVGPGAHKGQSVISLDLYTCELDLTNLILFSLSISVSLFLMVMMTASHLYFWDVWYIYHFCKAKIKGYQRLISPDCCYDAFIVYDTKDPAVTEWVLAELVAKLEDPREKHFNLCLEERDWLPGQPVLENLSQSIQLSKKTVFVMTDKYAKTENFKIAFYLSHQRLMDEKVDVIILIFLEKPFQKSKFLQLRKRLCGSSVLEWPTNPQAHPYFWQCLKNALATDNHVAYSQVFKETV
Text: (§1) Exposure increased more than dose-proportionally at low doses. Variability in exposure was high. • In vitro plasma protein binding was between 79.6% and 94.2% in animals and humans. Volume of distribution after intravenous dosing was high. […] Main metabolic pathways were oxygenation, hydrogenation, dehydrogenation, dealkylation, acetylation, glucuronidation, and/or glutathione conjugation. • In rats, >80% of drug-related material was found in feces, 11% to 20% in bile, and <4% in urine. […] There were no effects on embryofetal development up to 1 mg/kg/dose in rats and 30 mg/kg/dose in rabbits.

[2] = 14- and 28-day toxicity study in monkeys; format: in vivo; settings: 3, 15, and 100 mg/kg biw
Text: as §1

[3] = pharmacokinetics and excretion in rat; format: in vivo
Text: as §1

[4] = system: human whole blood cells; assay: cytokine release in vitro in whole blood cells; format: cell-based
Text: as §1
LEC for Compound 4-induced cytokine release in vitro was determined to be 2 nM.

[5] = respiratory and central nervous system safety pharmacology in rats; settings: rat, in vivo
Text: as §1

[6] = Phase 1 multiple dose pharmacokinetics in healthy adults; format: in vivo, human
Procedure: Following a single dose of Compound 4, intensive blood samples were collected over the first 24 hours, samples were then collected daily through Day 7, and weekly samples were collected through Day 35. Plasma concentrations of Compound 4 were evaluated using a validated liquid chromatography with tandem mass spectrometry method; the lower limit of quantification was 1 pg/mL. PK parameters were estimated using non-compartmental analysis (WinNonlin®, Certara, Princeton, NJ, USA). Descriptive statistics were used to summarize plasma concentrations and derived PK parameters of Compound 4. The impact of food on PK parameters was analyzed using geometric least square mean point estimates (mixed-effects model on log-transformed values with treatment as fixed effect and subject as a random effect).
Compound 4 was administered every week for 4 weeks in fasted condition at a dose of 1.25 mg.

[7] = embryofetal development in rats; format: in vivo
Text: as §1

[8] = molecular target: CYP3A4 (Homo sapiens, UniProt P08684); assay: CYP3A4 substrate and inhibition; format: in vitro ADME
Text: as §1

[9] = system: cytokines and ISGs (ISG15, MX1, OAS1); assay: Phase 1 multiple dose pharmacodynamics in healthy adults; format: in vivo, human; settings: 1.25 mg qw
Procedure: Serum levels of IFN-α were measured by ELISA. Serum levels of IP-10, IFN-γ, TNF-α, IL-12 (subunit P40), IL-6, IL-1β, IL-1RA, IL-18, MCP-1, MIP-1β, G-CSF, GM-CSF, IL-10, IL-15 were measured by Luminex xMAP technology. The LLOQ for IFN-α was determined at 12.5 pg/mL and at 25 pg/mL for all other cytokines measured. Fold changes for each of the cytokines were calculated compared to predose values or LLOQ-1 values if predose values were below LLOQ.
IFN-stimulated gene (ISG) expression analysis was conducted for 3 genes, ISG15, MX1, and OAS1, using quantitative polymerase chain reaction (qPCR) on collected whole blood samples. For the ISGs, relative fold changes from baseline were calculated according to the delta delta Cycle threshold (Ct) method (2^[Delta Delta Ct]). Assessments were done for Part 1 predose and postdose: 1.5 hours, 6 hours, 12 hours (Day 1), 24 hours (day 2), 48 hours (Day 3), 96 hours (Day 5), follow-up Week 2. For the Part 2, assessments were done predose and post the first and fourth dose: 2 hours, 4 hours, 12 hours, 24 hours, 48 hours, 96 hours and one week follow-up; and post the second and third doses: 12 hours and 48 hours.

[10] = 14-week rat toxicity study; format: in vivo; settings: 5 mg/kg biw
Text: as §1

[11] = after 4 weeks of qw dosing, 1.25 mg
[12] = 12 hours after the second administration

Sequence of CYP3A4 (P08684 whole entry): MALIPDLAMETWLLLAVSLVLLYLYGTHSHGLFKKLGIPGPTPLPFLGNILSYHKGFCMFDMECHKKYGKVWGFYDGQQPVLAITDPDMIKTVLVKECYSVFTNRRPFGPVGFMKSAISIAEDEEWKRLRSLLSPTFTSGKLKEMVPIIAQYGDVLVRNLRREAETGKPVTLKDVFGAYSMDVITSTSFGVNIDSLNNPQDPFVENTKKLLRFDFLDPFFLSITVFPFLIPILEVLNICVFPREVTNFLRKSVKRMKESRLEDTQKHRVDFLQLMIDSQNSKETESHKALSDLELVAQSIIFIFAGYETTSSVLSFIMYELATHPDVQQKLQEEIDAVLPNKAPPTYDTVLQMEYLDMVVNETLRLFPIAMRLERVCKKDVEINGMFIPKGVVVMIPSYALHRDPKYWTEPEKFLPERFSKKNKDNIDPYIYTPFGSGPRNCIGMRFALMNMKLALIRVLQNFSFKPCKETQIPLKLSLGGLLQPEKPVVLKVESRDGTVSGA

CCCCOc1nc(N)c2[nH]cc(Cc3ccc(CN4CCCC4)cc3)c2n1 [Compound 4]
lowest effective concentration (LEC) for activation of monkey TLR7 [1]: < 119 nM
brain inflammation [2]: Brain inflammation occurred
bioavailability ([3]; rat, in vivo, po): 15%
drug-related material found in feces ([3]; rats): > 80%
drug-related material found in urine ([3]; rats): < 4%
overall LEC for cytokine release in vitro [4]: 2 nM
potency on human versus monkey whole blood cells ([4]; most cytokines and chemokines tested): more potent on human whole blood cells compared to monkey whole blood cells
effects on respiratory or central nervous system parameters [5]: no relevant effects
excreted as unchanged drug in urine within the first 24 hours after the first and second dosing ([6]; 1.25 mg qw fasted): Less than 0.22%
terminal elimination, median value ([6]; 1.25 mg qw fasted): 244 h
mean accumulation ratio for AUC24h [6, 11]: 1.83
mean accumulation ratio for AUC72h [6, 11]: 2.27
mean accumulation ratio for AUCT [6, 11]: 2.75
Cmax ([6]; human, plasma, oral, 1.25 mg, 1.25 mg qw fasted, SD 67.2, read-out: mean Cmax after the fourth dose): 0.235 ng/mL
Cmax ([6]; human, plasma, oral, 1.25 mg, 1.25 mg qw fasted, SD 88.4, read-out: mean Cmax after the first dose): 0.186 ng/mL
AUC ([6]; human, plasma, oral, 1.25 mg, 1.25 mg qw fasted, SD 591, read-out: mean AUC24h after the fourth dose): 1.76 ng·h/mL
AUC ([6]; human, plasma, oral, 1.25 mg, 1.25 mg qw fasted, SD 874, read-out: mean AUC24h after the first dose): 1.21 ng·h/mL
concentration at 21 days ([6]; human, plasma, oral, 1.25 mg qw fasted, read-out: mean Ctrough before the fourth dose): 0.0408 ± 0.0489 ng/mL
concentration at 7 days ([6]; human, plasma, oral, 1.25 mg qw fasted, read-out: mean Ctrough before the second dose): 0.00717 ± 0.0032 ng/mL
post-implantation loss and fetal weights ([7]; pregnant rats, 3 mg/kg biw): Post-implantation loss and fetal weights effects were noted
dose without effects on embryofetal development ([7]; rats): up to 1 mg/kg/dose
CYP3A4 substrate [8]: substrate
IC50 [8]: 0.59 µM
IFN-α or IP-10 levels before the subsequent dose [9]: values returned to baseline before administration of the subsequent dose
PD responses after the last dose compared to the first dose [9]: No enhanced induction of PD responses as well as no evidence for tachyphylaxis
fold increase of IFN-α in the subject with cotton wool spots [9, 12]: 8.4 fold
maximum IFN-α level in the subject with cotton wool spots [9, 12]: 97 pg/mL
brain inflammation [10]: Brain inflammation occurred
